Assay results as given in ChEMBL document CHEMBL1141921, “Phthalazinones. Part 1: The design and synthesis of a novel series of potent inhibitors of poly(ADP-ribose)polymerase” (Bioorg Med Chem Lett, 2005).

Legend:
HeLa = experiment: Potentiation factor (ratio of the IC50 growth curve for the alkylating agent, methyl methanesulfonate (MMS) divided by the IC50 of the curve of MMS + PARP inhibitor) against human HeLa B cells at a concentration of 200 nM; type: functional
[1] = In vitro metabolic stability was measured in human liver microsomes; type: ADME, Microsome
[2] = target: Poly [ADP-ribose] polymerase 1 (Homo sapiens, UniProt P09874); experiment: Inhibitory concentration against human poly (ADP-ribose) polymerase 1 (PARP-1)
Poly [ADP-ribose] polymerase 1, sequence (P09874 whole entry): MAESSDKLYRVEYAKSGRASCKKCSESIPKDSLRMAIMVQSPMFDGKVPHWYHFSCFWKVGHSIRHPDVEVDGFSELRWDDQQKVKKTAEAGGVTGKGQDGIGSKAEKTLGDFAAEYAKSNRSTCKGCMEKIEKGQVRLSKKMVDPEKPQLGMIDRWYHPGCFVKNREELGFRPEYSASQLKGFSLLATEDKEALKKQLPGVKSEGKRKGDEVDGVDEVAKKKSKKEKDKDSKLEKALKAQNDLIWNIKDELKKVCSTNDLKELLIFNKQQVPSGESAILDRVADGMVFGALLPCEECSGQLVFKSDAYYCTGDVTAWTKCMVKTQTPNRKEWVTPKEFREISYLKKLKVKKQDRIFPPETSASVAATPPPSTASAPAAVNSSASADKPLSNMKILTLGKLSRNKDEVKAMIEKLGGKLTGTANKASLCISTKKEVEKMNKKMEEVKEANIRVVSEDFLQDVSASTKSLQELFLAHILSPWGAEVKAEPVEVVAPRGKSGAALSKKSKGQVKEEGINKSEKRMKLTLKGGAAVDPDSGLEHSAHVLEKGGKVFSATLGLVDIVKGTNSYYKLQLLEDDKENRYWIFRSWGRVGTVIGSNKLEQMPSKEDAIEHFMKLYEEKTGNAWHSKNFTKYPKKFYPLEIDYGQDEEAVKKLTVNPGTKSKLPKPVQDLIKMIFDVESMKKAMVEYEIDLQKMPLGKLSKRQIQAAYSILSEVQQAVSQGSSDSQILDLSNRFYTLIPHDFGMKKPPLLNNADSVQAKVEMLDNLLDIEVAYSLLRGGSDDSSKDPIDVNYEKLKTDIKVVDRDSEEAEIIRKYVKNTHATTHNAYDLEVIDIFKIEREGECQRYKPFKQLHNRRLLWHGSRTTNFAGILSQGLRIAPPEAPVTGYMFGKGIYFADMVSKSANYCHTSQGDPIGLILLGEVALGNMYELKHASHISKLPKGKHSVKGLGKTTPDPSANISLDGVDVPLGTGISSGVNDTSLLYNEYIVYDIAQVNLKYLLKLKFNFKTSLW

[3] = In vitro metabolic stability was measured in mouse liver microsomes; type: ADME, Microsome

SMILES | PF50 (HeLa) | IC50 [2] [nM] | other results
O=C1CCC(=O)N1c1cccc(Cc2n[nH]c(=O)c3ccccc23)c1 | 1.74 | – | Cli [1]: < 0.05 ml min-1 g-1 liver
Cc1noc(-c2cccc(Cc3nnc(O)c4ccccc34)c2)n1 | – | 189 | –
O=C1CCC(=O)N1c1cc(Cc2n[nH]c(=O)c3ccccc23)ccc1Cl | 1.5 | – | –
O=C1CCC(=O)N1c1cc(Cc2n[nH]c(=O)c3ccccc23)ccc1F | 5.62 | 5 | Cli [3]: < 1 ml min-1 g-1 liver
CC1CC(=O)N(c2cc(Cc3n[nH]c(=O)c4ccccc34)ccc2F)C1=O (configuration not stated) | 18.2 | – | –
CCS(=O)(=O)Nc1cccc(Cc2n[nH]c(=O)c3ccccc23)c1 | – | 290 | –
CN1CC(=O)N(c2cc(Cc3nnc(O)c4ccccc34)ccc2F)C(=O)C1 | 3.1 | – | –
O=c1[nH]nc(Cc2ccccc2)c2ccccc12 | – | 770 | –
CCC(=O)Nc1cccc(Cc2n[nH]c(=O)c3ccccc23)c1 | – | 20 | Cli [3]: 12 ml min-1 g-1 liver
O=C(Nc1cccc(Cc2n[nH]c(=O)c3ccccc23)c1)c1ccc(-c2ccsc2)s1 | – | 56 | –
O=C1CC(c2ccccc2)C(=O)N1c1cc(Cc2n[nH]c(=O)c3ccccc23)ccc1F (configuration not stated) | 5.4 | – | –
O=C1C2CC2C(=O)N1c1cc(Cc2nnc(O)c3ccccc23)ccc1F (configuration not stated) | 14.4 | 5 | –
COc1ccc(-n2cc(C(=O)Nc3cccc(Cc4n[nH]c(=O)c5ccccc45)c3)c(C)n2)cc1 | – | 10 | –
Cc1nc(-c2ccccc2)sc1C(=O)Nc1cccc(Cc2n[nH]c(=O)c3ccccc23)c1 | – | 27 | –
O=C1CCCC(=O)N1c1cc(Cc2n[nH]c(=O)c3ccccc23)ccc1F | 3.6 | – | –
CC1(C)CC(=O)N(c2cc(Cc3nnc(O)c4ccccc34)ccc2F)C1=O | 2.9 | – | –
O=C(Nc1cccc(Cc2nnc(O)c3ccccc23)c1)C(F)(F)F | – | 13 | Cli [3]: > 50 ml min-1 g-1 liver
CC(=O)Oc1cccc(Cc2n[nH]c(=O)c3ccccc23)c1 | – | 36 | –
COc1ccc(Cc2n[nH]c(=O)c3ccccc23)cc1N1C(=O)CCC1=O | 1.5 | 33 | –
CCCNC(=O)Nc1cccc(Cc2n[nH]c(=O)c3ccccc23)c1 | – | 540 | –
O=C1CCCN1c1cccc(Cc2n[nH]c(=O)c3ccccc23)c1 | – | – | Cli [3]: 4.9 ml min-1 g-1 liver
CCCC(=O)Nc1cccc(Cc2n[nH]c(=O)c3ccccc23)c1 | – | 90 | –
O=C1c2ccccc2C(=O)N1c1cccc(Cc2n[nH]c(=O)c3ccccc23)c1 | – | 180 | –
CCOC(=O)Nc1cccc(Cc2nnc(O)c3ccccc23)c1 | – | 116 | –
O=C(Nc1cccc(Cc2n[nH]c(=O)c3ccccc23)c1)C1CC1 | – | 55 | –
O=C1C=CC(=O)N1c1cccc(Cc2nnc(O)c3ccccc23)c1 | 0.94 | – | –
CC(C)C(=O)Nc1cccc(Cc2nnc(O)c3ccccc23)c1 | – | 370 | –
O=C(Nc1cccc(Cc2nnc(O)c3ccccc23)c1)c1ccc(-n2cccn2)nc1 | – | 47 | –
CCNC(=O)c1cccc(Cc2n[nH]c(=O)c3ccccc23)c1 | – | 50 | Cli [3]: < 1 ml min-1 g-1 liver
